Read-outs that look alike come from different tables or passages of the source.
Legend:
[1] = biological target: MRGPRX4 (Homo sapiens, UniProt Q96LA9); assay: MRGPR X4 antagonist activity, IP-One Gq HTRF assay in stably transfected HEK cells (versus agonist bilirubin, deoxycholic acid, conjugated bilirubin, urobilin, obeticholic acid or BAR502); type: cell-based; design: expressed in transfected cells; host or cells: HEK cells, stably transfected
Procedure, shortened: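 Stably transfected HEK cells expressing human MRGPR X4, seeded overnight, given compounds as 10-point 1:3 curves from 10 uM final top, incubated 1 h at 37° C then 30 min at room temperature. IP-1 measured by IP-One Gq HTRF. IC50 derived from the HTRF ratio.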

[2] = Mouse pharmacokinetics study, 50 mg/kg oral gavage, plasma LC-MS/MS; type: in vivo; settings: male C57BL/6 mice, non-fasted
Protocol: Compounds were formulated in 5% DMSO, 5% Solutol, and […] phosphate buffered saline at a concentration of 5 mg/mL, and typically appeared as a fine homogenous suspension. Male C57BL/6 mice (n=3/compound) were administered a 50 mg/kg dose of each compound by oral gavage under a non-fasted condition. Blood samples were collected via the saphenous vein onto K2-EDTA at 0.25, 0.5, 1, 2, 4, 8 and 24 hours after dosing, and plasma was prepared and stored at […] until analysis. Plasma sample preparation for analysis was done by protein precipitation using acetonitrile (including Celecoxib as an internal standard) followed by centrifugation. Compound concentrations were determined in extracted plasma using LC-MS/MS relative to an 8 point standard curve covering the 1 to 3000 ng/mL range. Non-compartmental analysis using Phoenix WinNonlin was used to estimate pharmacokinetic parameters including area under the curve, clearance, and half-life. The administered dose was confirmed by analysis of residual dosing material by UPLC-UV relative to a single point calibration sample.

[3] = versus 10 μM Bilirubin agonist, HEK cells expressing human MRGPR X4, read-out: MRGPR4 Antagonist Activity
[4] = versus 10 μM Bilirubin agonist, read-out: IC50 (Bilirubin agonist)
[5] = versus 20 μM deoxycholic acid, read-out: IC50 (Deoxycholic Acid agonist)
[6] = versus 20 μM obeticholic acid, read-out: IC50 (Obeticholic Acid Agonist)
[7] = versus 50 μM urobilin, read-out: IC50 (Urobilin Agonist)
[8] = versus 100 μM conjugated bilirubin, read-out: IC50 (Conjugated Bilirubin Agonist)

Sequence of MRGPRX4 (Q96LA9 whole entry): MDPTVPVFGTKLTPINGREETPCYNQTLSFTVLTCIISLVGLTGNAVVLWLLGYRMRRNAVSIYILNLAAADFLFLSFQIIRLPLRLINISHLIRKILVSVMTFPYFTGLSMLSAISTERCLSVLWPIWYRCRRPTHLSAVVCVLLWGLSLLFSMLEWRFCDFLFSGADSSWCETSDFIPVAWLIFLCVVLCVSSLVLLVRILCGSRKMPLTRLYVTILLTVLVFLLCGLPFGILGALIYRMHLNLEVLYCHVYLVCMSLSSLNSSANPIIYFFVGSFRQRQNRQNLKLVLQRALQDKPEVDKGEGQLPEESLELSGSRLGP

Structure (SMILES) | IC50 [1, 3] [nM] | also measured
O=C(O)c1cccc(COc2ccc(Cl)cc2Cl)c1 [Compound 1-18] | < 100 | IC50 ([1]; read-out: IC50 (10 μM BAR502) nM, MRGPRX4 antagonists versus 10 μM BAR502 agonist): 48 nM; IC50 [1, 4]: 57 nM; IC50 [1, 5]: 130 nM; IC50 [1, 6]: 40 nM; IC50 [1, 7]: 230 nM; IC50 [1, 8]: 130 nM; AUC [2]: 376 μMxhr; Cmax [2]: 113 µM; T-1/2 [2]: 4.2 h
O=C(O)c1cccc(COc2ccc(C(F)(F)F)cc2Cl)c1 [Compound 1-29] | < 100 | IC50 [1, 4]: 20 nM; IC50 [1, 5]: 46 nM; IC50 [1, 6]: 25 nM; IC50 [1, 7]: 16 nM; IC50 [1, 8]: 46 nM; AUC [2]: 615 μMxhr; Cmax [2]: 196 µM; T-1/2 [2]: 4.6 h
Cc1noc(-c2cccc(COc3ccc(C(F)(F)F)cc3Cl)c2)n1 [Compound 49-1, 5-(3-((2-chloro-4-(trifluoromethyl)phenoxy)methyl)phenyl)-3-methyl-1,2,4-oxadiazole] | > 2500 | –
FC(F)c1cccc(COc2ccc(C(F)(F)F)cc2Cl)c1 [Compound 50-1, 2-chloro-1-((3-(difluoromethyl)benzyl)oxy)-4-(trifluoromethyl)benzene] | 1000 to 2500 | –
O=C(NCc1ccccc1)c1cccc(COc2ccc(C(F)(F)F)cc2Cl)c1 [Compound 52-1, N-benzyl-3-((2-chloro-4-(trifluoromethyl)phenoxy)methyl)benzamide] | 100 to 500 | –
O=C(c1ccc(COc2ccc(C(F)(F)F)cc2Cl)cc1)N1CC2(COC2)C1 [Compound 52-2] | > 2500 | –
O=C(NCS(=O)(=O)O)c1ccc(COc2ccc(C(F)(F)F)cc2Cl)cc1 [Compound 52-3] | 100 to 500 | –
O=C(c1ccc(COc2ccc(C(F)(F)F)cc2Cl)cc1)N1CCC2(COC2)C1 [Compound 52-4] | 1000 to 2500 | –
O=C(NCCS(=O)(=O)O)c1ccc(COc2ccc(C(F)(F)F)cc2Cl)cc1 [Compound 52-5] | 100 to 500 | –
N#CCNC(=O)c1ccc(COc2ccc(C(F)(F)F)cc2Cl)cc1 [Compound 52-6] | 100 to 500 | –
CCCCNC(=O)c1cccc(COc2ccc(C(F)(F)F)cc2Cl)c1 [Compound 52-7] | 100 to 500 | –
CC(C)NC(=O)c1cccc(COc2ccc(C(F)(F)F)cc2Cl)c1 [Compound 52-8] | 100 to 500 | –
COCCNC(=O)c1cccc(COc2ccc(C(F)(F)F)cc2Cl)c1 [Compound 52-9] | 500 to 1000 | –
CCNC(=O)c1cccc(COc2ccc(C(F)(F)F)cc2Cl)c1 [Compound 52-10] | 100 to 500 | –
O=C(Nc1ccccc1)c1cccc(COc2ccc(C(F)(F)F)cc2Cl)c1 [Compound 52-11] | 100 to 500 | –
O=C(NCCCO)c1cccc(COc2ccc(C(F)(F)F)cc2Cl)c1 [Compound 52-12] | 100 to 500 | –
COCCCNC(=O)c1cccc(COc2ccc(C(F)(F)F)cc2Cl)c1 [Compound 52-13] | < 100 | –
COC1CCN(C(=O)c2cccc(COc3ccc(C(F)(F)F)cc3Cl)c2)CC1 [Compound 52-14] | 1000 to 2500 | –
O=C(N[C@H]1CC[C@H](O)CC1)c1cccc(COc2ccc(C(F)(F)F)cc2Cl)c1 [Compound 52-15] | 500 to 1000 | –
O=C(NCCO)c1cccc(COc2ccc(C(F)(F)F)cc2Cl)c1 [Compound 52-16] | 100 to 500 | –
CN(C)CCNC(=O)c1cccc(COc2ccc(C(F)(F)F)cc2Cl)c1 [Compound 52-17] | 500 to 1000 | –
O=C(c1cccc(COc2ccc(C(F)(F)F)cc2Cl)c1)N1CC(O)C1 [Compound 52-18] | 500 to 1000 | –
O=C(NC1CCCC(O)C1)c1cccc(COc2ccc(C(F)(F)F)cc2Cl)c1 (stereo not drawn) [Compound 52-19] | 500 to 1000 | –
CS(=O)(=O)NC(=O)c1cccc(COc2ccc(C(F)(F)F)cc2Cl)c1 [Compound 52-20] | 100 to 500 | –
O=C(c1cccc(COc2ccc(C(F)(F)F)cc2Cl)c1)N1CCCC(O)C1 (stereo not drawn) [Compound 52-21] | 500 to 1000 | –
NC(=O)CNC(=O)c1cccc(COc2ccc(C(F)(F)F)cc2Cl)c1 [Compound 52-22] | 100 to 500 | –
O=C(NC1CCCC1)c1cccc(COc2ccc(C(F)(F)F)cc2Cl)c1 [Compound 52-23] | 100 to 500 | –
O=C(NC1CCC1)c1cccc(COc2ccc(C(F)(F)F)cc2Cl)c1 [Compound 52-24] | 100 to 500 | –

Structure (SMILES) | IC50 [1, 3] [nM] | also measured
O=C(c1cccc(COc2ccc(C(F)(F)F)cc2Cl)c1)N1CCOC1 [Compound 52-25] | 500 to 1000 | –
CNC(=O)c1cccc(COc2ccc(C(F)(F)F)cc2Cl)c1 [Compound 52-26] | 100 to 500 | –
CNC(=O)CNC(=O)c1cccc(COc2ccc(C(F)(F)F)cc2Cl)c1 [Compound 52-27] | 500 to 1000 | –
CNCCNC(=O)c1cccc(COc2ccc(C(F)(F)F)cc2Cl)c1 [Compound 53-1, 3-((2-chloro-4-(trifluoromethyl)phenoxy)methyl)-N-(2-(methylamino)ethyl)benzamide] | 500 to 1000 | –
NCCNC(=O)c1cccc(COc2ccc(C(F)(F)F)cc2Cl)c1 [Compound 53-2] | 1000 to 2500 | –
CC(C)[C@H](NC(=O)c1cccc(COc2ccc(C(F)(F)F)cc2Cl)c1)C(=O)O [Compound 54-1, (3-((2-chloro-4-(trifluoromethyl)phenoxy)methyl)benzoyl)-L-valine] | 100 to 500 | –
O=C(O)CNC(=O)c1cccc(COc2ccc(C(F)(F)F)cc2Cl)c1 [Compound 54-2] | < 100 | –
CC(C)(NC(=O)c1cccc(COc2ccc(C(F)(F)F)cc2Cl)c1)C(=O)O [Compound 54-3] | 100 to 500 | –
O=C(N[C@@H](Cc1c[nH]c2ccccc12)C(=O)O)c1cccc(COc2ccc(C(F)(F)F)cc2Cl)c1 [Compound 54-5] | 100 to 500 | –
O=C(N[C@@H](Cc1ccc(O)cc1)C(=O)O)c1cccc(COc2ccc(C(F)(F)F)cc2Cl)c1 [Compound 54-7] | 100 to 500 | –
C[C@@H](O)[C@H](NC(=O)c1cccc(COc2ccc(C(F)(F)F)cc2Cl)c1)C(=O)O [Compound 54-8] | 500 to 1000 | –
O=C(N[C@@H](CO)C(=O)O)c1cccc(COc2ccc(C(F)(F)F)cc2Cl)c1 [Compound 54-9] | 100 to 500 | –
O=C(O)c1ccc(NC(=O)c2cccc(COc3ccc(C(F)(F)F)cc3Cl)c2)cc1 [Compound 54-10] | 500 to 1000 | –
O=C(O)c1cccc(NC(=O)c2cccc(COc3ccc(C(F)(F)F)cc3Cl)c2)c1 [Compound 54-11] | > 2500 | –
NC(=O)C[C@H](NC(=O)c1cccc(COc2ccc(C(F)(F)F)cc2Cl)c1)C(=O)O [Compound 55-1, (3-((2-chloro-4-(trifluoromethyl)phenoxy)methyl)benzoyl)-L-asparagine] | 100 to 500 | –
O=C(N[C@@H](Cc1c[nH]cn1)C(=O)O)c1cccc(COc2ccc(C(F)(F)F)cc2Cl)c1 [Compound 55-2] | 500 to 1000 | –
NC(=O)CC[C@H](NC(=O)c1cccc(COc2ccc(C(F)(F)F)cc2Cl)c1)C(=O)O [Compound 55-3] | 100 to 500 | –
CCOC(=O)c1cccc(COc2ccc(C(F)(F)F)cc2Cl)c1F [Compound 56-1, ethyl 3-((2-chloro-4-(trifluoromethyl)phenoxy)methyl)-2-fluorobenzoate] | 100 to 500 | –
CCOC(=O)c1cccc(COc2ccc(C(F)(F)F)cc2Cl)n1 [Compound 56-2] | < 100 | –
Cc1cc(CNc2ccc(C(F)(F)F)cc2Cl)nc(C(=O)O)c1 [Compound 57-1, 6-(((2-chloro-4-(trifluoromethyl)phenyl)amino)methyl)-4-methylpicolinic acid] | < 100 | –
O=C1CC(c2cccc(COc3ccc(C(F)(F)F)cc3Cl)c2)N1 (stereo not drawn) [Compound 59-1, 4-(3-((2-chloro-4-(trifluoromethyl)phenoxy)methyl)phenyl)azetidin-2-one] | 500 to 1000 | –
N#Cc1cc(C#Cc2ccc(C(F)(F)F)cc2Cl)cc(C(=O)O)c1 [Compound 60-1, 3-((2-chloro-4-(trifluoromethyl)phenyl)ethynyl)-5-cyanobenzoic acid] | 100 to 500 | –
N#Cc1cc(CCc2ccc(C(F)(F)F)cc2Cl)cc(C(=O)O)c1 [Compound 61-1, 3-(2-chloro-4-(trifluoromethyl)phenethyl)-5-cyanobenzoic acid] | 100 to 500 | –
CC(Oc1ccc(C(F)(F)F)cc1Cl)c1cccc(C(=O)O)c1 (stereo not drawn) [Compound 62-1, 3-(1-(2-chloro-4-(trifluoromethyl)phenoxy)ethyl)benzoic acid] | < 100 | –
CNCc1cccc(COc2ccc(C(F)(F)F)cc2Cl)c1 [Compound 63-1, 1-(3-((2-chloro-4-(trifluoromethyl)phenoxy)methyl)phenyl)-N-methylmethanamine] | 100 to 500 | –
O=C(O)Cc1cccc(COc2ccc(Cl)cc2Cl)c1 [Compound 64-1, 2-(3-((2,4-dichlorophenoxy)methyl)phenyl)acetic acid] | > 2500 | –
Nc1cccc(COc2ccc(C(F)(F)F)cc2Cl)c1 [Compound 65-1, 3-((2-chloro-4-(trifluoromethyl)phenoxy)methyl)aniline] | 500 to 1000 | –

Source: patent US11840521B2, “Modulators of Mas-related G-protein receptor X4 and related products and methods” (Escient Pharmaceuticals, Inc., priority 2019, dated 2023)
